According to patent US20220362138A1, “Oral Care Compositions and Methods of Use” (Colgate-Palmolive Company, priority 2020, published 2022):

Test system: IL-1 β mediated PGE2 in HEPM monolayer cells
Assay: IL-1β mediated PGE2 suppression, HEPM monolayer cell model
Assay type: cell-based
Conditions: cells treated with IL-1 β
Description: IL-1 β Mediated PGE2 Suppression with Gymnema sylvestre Treatment (Cell Model)
PGE2, a marker of inflammation, can be increased via administration of IL-1 β. Samples are subjected to the HEPM monolayer cell model assay. […]

Compound Oc1cc(Cl)ccc1Oc1ccc(Cl)cc1Cl [Triclosan] has a PGE2 (0.0005%) of 715.9 pg/mL and a PGE2 (0.001%) of 520.9 pg/mL.
